For assay [1], the system named is recombinant human laminin isoforms (–111, –211, –332, –411, –421, –511, and –521). The assay can be described thus: ELISA: binding of full-length laminin isoforms to absorbed GFs and CXCL chemokines. As to conditions: 50 nM GF coated, 10 nM laminin, n = 4; for binding to all tested laminin isoforms (ELISA, A450 nm): signals greater than 0.1 indicate binding; for binding to the other laminin isoforms (ELISA, A450 nm): isoforms other than laminin-332. The procedure:
Ninety-six-well ELISA plates (med-binding, Greiner Bio-One) were coated with 50 nM GFs in 100 µL/well of phosphate-buffered saline (PBS) at 37 °C for more than 2 h. After blocking with 2% BSA solution containing PBS and 0.05% Tween 20 (PBS-T), 10 nM recombinant human laminin isoforms (–111, –211, –332, –411, –421, –511, and –521) (>95% purity tested by SDS-PAGE, BioLamina) in 100 µL/well PBS were added. Bound laminin was detected with 100 µL/well rabbit anti-human LAMC1 polyclonal antibody (Assay Biotech, Catalog No. C13072, 1:1000 dilution in PBS) or rabbit anti-human LAMA3 polyclonal antibody (Assay Biotech, Catalog No. C13066, 1:1000 dilution in PBS). After incubation with biotinylated anti-rabbit antibody for 60 min at room temperature (RT), HRP-conjugated streptavidin (Jackson ImmunoResearch) was added. After 60 min of incubation at RT, 50 μL of TMB substrate (Sigma-Aldrich) was added. The reactions were stopped by adding 25 μL of 2 N H2SO4. Subsequently, the absorbance at 450 nm was measured with a reference of 570 nm.

Assay [2] concerns recombinant human syndecan-1, syndecan-2, syndecan-3, and syndecan-4. In words: ELISA: syndecan binding to laminin peptides. The arrangement: key to Interaction with Syndecan: ++ indicates high affinities; + indicates medium/low affinities. The conditions noted are these: for binding to syndecans 1–4 (ELISA): 10 µg/mL laminin peptide coated (legend; method 1 μg/mL), 1 μg/mL histidine-tagged syndecan, vs BSA-coated wells, n = 8; for Interaction with Syndecan: summary table. The procedure:
ELISA tests were performed as described above. […] A concentration of 1 μg/mL of BSA served as non-binding protein control. After blocking with 2% BSA PBS-T solution, 1 μg/mL of the recombinant human syndecan-1, syndecan-2, syndecan-3, and syndecan-4 (all syndecan proteins are histidine-tagged; SinoBiological) were added. Bound GF was detected with anti-histidine tag antibody (BioLegend, Catalog No. 562504, 1:1000 dilution).
A general note: In an ELISA, binding on a coated surface is turned into a signal by an enzyme label.

The nature of assay [3]: ELISA: biotinylated heparin binding to laminin peptides. As to conditions: for binding to heparin (ELISA): 10 µg/mL laminin peptide coated (legend; method 1 μg/mL), 10 µg/mL biotinylated heparin, vs BSA-coated wells, n = 4; for Interaction with Heparin: summary table. The arrangement: key to Interaction with Heparin: ++ indicates high affinities; + indicates medium/low affinities. The procedure:
(§1) ELISA tests were performed as described above. In brief, […] recombinant protein, laminin alpha 4 LG domain recombinant protein (R&D Systems), laminin alpha 5 LG domain recombinant protein (LD BioPharma), or laminin peptide (sequences are described in Supplementary Table 1, chemically synthesized by Genscript) in PBS for 2 h at 37 °C. A concentration of 1 μg/mL of BSA served as non-binding protein control. After blocking with 2% BSA PBS-0.05% Tween 20 (PBS-T) solution, 1 μg/mL of the recombinant human proteins (VEGF-A121, VEGF-A165, PlGF-1, PlGF-2, PDGF-BB, or FGF-2) or 10 μg/mL of biotinylated heparin (Sigma-Aldrich) were added. Bound GF was detected with biotinylated antibodies for human VEGF-A, PlGF, PDGF-BB (R&D Systems, Catalog No. DY220, 1:180 dilution), or FGF-2 (R&D Systems). The antibodies were detected by streptavidin-HRP (R&D Systems).

In another assay the test system is human lung fibroblasts. In words: Cell adhesion assay, fibroblasts. Type of assay: cell-based. The arrangement: key to Cell adhesion Fibroblast: ++ indicates high affinities; + indicates medium/low affinities. The conditions noted are these: for Cell adhesion Fibroblast: summary table; for fibroblast attachment on peptide-coated surfaces: without EDTA, 1 μg/mL peptide coated, 3000 cells/well, 30 min, 37 °C, FGM-2, 1% FBS, CyQUANT, vs BSA, n = 10. As for the experimental part:
(§2) A total of 96-well plates (non-tissue culture treated, Greiner Bio-One) were pre-coated with 1 μg/mL with laminin HBD peptides in PBS for 2 h at 37 °C, followed by blocking with 2% BSA PBS for 1 h at RT. Cell adhesion assays were performed using human lung fibroblasts (Lonza) in FGM-2 medium (Lonza) or human umbilical vein endothelial cells (HUVEC; Lonza) in EGM-2 medium (Lonza) supplemented with 1% fetal bovine serum (FBS) and 100 µg/mL VEGF-A165, with or without 5 mM EDTA (Sigma-Aldrich). Cells were plated at 3000 cells/well on laminin peptide pre-coated plates and incubated for 30 min at 37 °C, 5% CO2. Then, the medium was removed, and wells were quickly washed three times with PBS. Cell numbers were quantified using a CyQUANT assay, according to the manufacturer’s instructions (Invitrogen). All cell lines were checked for mycoplasma contamination and used in passages from 5 to 8.

The test system of another assay is GF. In words: ELISA: GF binding to laminin peptides, stated for the tested GFs together. The conditions noted are these: summary table. The arrangement: species or system human; key: ++ indicates high affinities; + indicates medium/low affinities. As for the experimental part: (§3) ELISA tests were performed as described above. In brief, ELISA plates were coated with 1 μg/mL of laminin alpha 3 LG domain recombinant protein, laminin alpha 4 LG domain recombinant protein (R&D Systems), laminin alpha 5 LG domain recombinant protein (LD BioPharma), or laminin peptide (sequences are described in Supplementary Table 1, chemically synthesized by Genscript) in PBS for 2 h at 37 °C. A concentration of 1 μg/mL of BSA served as non-binding protein control. After blocking with 2% BSA PBS-0.05% Tween 20 (PBS-T) solution, 1 μg/mL of the recombinant human proteins (VEGF-A121, VEGF-A165, PlGF-1, PlGF-2, PDGF-BB, or FGF-2) or 10 μg/mL of biotinylated heparin (Sigma-Aldrich) were added. Bound GF was detected with biotinylated antibodies for human VEGF-A, PlGF, PDGF-BB (R&D Systems, Catalog No. DY220, 1:180 dilution), or FGF-2 (R&D Systems). The antibodies were detected by streptavidin-HRP (R&D Systems).

Another assay deals with VEGF-A165. The assay can be described thus: ELISA: VEGF-A165 binding to laminin LG domain / laminin peptide. Further details: species or system human. The conditions noted are these: 10 µg/mL laminin peptide coated (legend; method 1 μg/mL); 1 μg/mL GF; vs BSA-coated wells; n = 4. As for the experimental part:
as §1

Another assay relates to FGF-2. The assay can be described thus: ELISA: FGF-2 binding to laminin LG domain / laminin peptide. The arrangement: species or system human. The conditions noted are these: 10 µg/mL laminin peptide coated (legend; method 1 μg/mL); 1 μg/mL GF; vs BSA-coated wells; n = 4. As for the experimental part: as §3
Assay [4] relates to human umbilical vein endothelial cells (HUVEC). In words: Cell adhesion assay, HUVEC. Type of assay: cell-based. The arrangement: key to Cell adhesion HUVEC: ++ indicates high affinities; + indicates medium/low affinities. The conditions noted are these: for Cell adhesion HUVEC: summary table; for HUVEC attachment on peptide-coated surfaces: without EDTA, 1 μg/mL peptide coated, 3000 cells/well, 30 min, 37 °C, 100 ng/mL VEGF-A165, 1% FBS, CyQUANT, n = 10. As for the experimental part:
as §2, with “Cell adhesion assays were performed using human lung fibroblasts (Lonza) in FGM-2 medium (Lonza) or human umbilical vein endothelial cells (HUVEC; Lonza) in EGM-2 medium (Lonza) supplemented with 1% fetal bovine serum (FBS) and 100 µg/mL VEGF-A165, with or without 5 mM EDTA (Sigma-Aldrich).” left out

The subject of the next assay is PDGF-BB. In words: ELISA: PDGF-BB binding to laminin LG domain / laminin peptide. The arrangement: species or system human. The conditions noted are these: 10 µg/mL laminin peptide coated (legend; method 1 μg/mL); 1 μg/mL GF; vs BSA-coated wells; n = 4. The procedure:
as §3

Another assay deals with PlGF-2. The assay can be described thus: ELISA: PlGF-2 binding to laminin LG domain / laminin peptide. Further details: species or system human. As to conditions: 10 µg/mL laminin peptide coated (legend; method 1 μg/mL); 1 μg/mL GF; vs BSA-coated wells; n = 4. As for the experimental part:
as §3

For the substance βNGF: β-nerve growth factor, PeproTech, the “binding to all tested laminin isoforms (ELISA, A450 nm)” value (“binding to all tested laminin isoforms” below) in assay [1] is recorded as “bound only weakly”.
The same measure, in the same setting: in the case of “IGF-2: insulin-like growth factor, PeproTech” it was “Neither IGF-1 nor IGF-2 displayed significant binding”; in that of NT-3: neurotrophin, PeproTech, “strong binding”.
On to “CXCL-12γ: C–X–C motif ligand (CXCL)-12γ, R&D systems”, for which, in assay [1], the “binding to all tested laminin isoforms” value was “bound”.
Take “KNSFMALYLSKGR [LAMA3_3031–3043, chemically synthesized human laminin LAMA3 LG4 peptide, 13 aa]”: in assay [2], the “binding to syndecans 1–4 (ELISA)” value is on record as “weak binding” and the “Interaction with Syndecan” value is given as “+”. Moreover, in [3], the “binding to heparin (ELISA)” value is given as “do not show heparin binding”. Further, in the assay on human lung fibroblasts, the “Cell adhesion Fibroblast” value is recorded as “+” and the “fibroblast attachment on peptide-coated surfaces” value (from here on “fibroblast attachment”) is given as “enhancement of fibroblast attachment”. For the same substance, the “Interaction with GF” value in the assay with GF is “+”. Further, in the assay on VEGF-A165, the “binding to VEGF-A165 (ELISA), peptides” value was “bound”.
As for CXCL-11: CXCL chemokine, PeproTech, in assay [1], the “binding to the other laminin isoforms (ELISA, A450 nm)” value is recorded as “not to the other isoforms” and the “binding to laminin-332 (ELISA, A450 nm)” value is recorded as “bound weakly”.
For “PDGF-BB: platelet-derived growth factor, PeproTech”, the “binding to all tested laminin isoforms” value in assay [1] was “bound”.
Take “FGF-2: fibroblast growth factor, PeproTech”: in assay [1], the “binding to all tested laminin isoforms” value was “bound”.
On to “PPFLMLLKGSTRFNKTKTFR [LAMA3_2932–2951, chemically synthesized human laminin LAMA3 LG3–LG4 linker peptide, 20 aa]”, for which, in [2], the “binding to syndecans 1–4 (ELISA)” value is “weak binding” and the “Interaction with Syndecan” value is on record as “+”. Also, in [3], the “binding to heparin (ELISA)” value is “bound to heparin” and the “Interaction with Heparin” value is “++”. In the assay on human lung fibroblasts, the “Cell adhesion Fibroblast” value is “+” and the “fibroblast attachment” value is “enhancement of fibroblast attachment”. Further, in the assay on FGF-2, the “binding to FGF-2 (ELISA), peptides” value was “preferentially bound”. Also, the “Interaction with GF” value in the assay on GF is listed as “+”. Further, in the assay with VEGF-A165, the “binding to VEGF-A165 (ELISA), peptides” value was “preferentially bound”. In assay [4], the “Cell adhesion HUVEC” value is reported as “+” and the “HUVEC attachment on peptide-coated surfaces” value is “promoted HUVEC attachment”.
Consider “HB-EGF: heparin-binding epidermal growth factor, PeproTech”, for which the “binding to all tested laminin isoforms” value in assay [1] was “weakly bound”.
For the substance “FGF-18: fibroblast growth factor, PeproTech”, the “binding to all tested laminin isoforms” value in [1] was “bound”.
Consider “BMP-4: bone morphogenetic protein, PeproTech”, for which the “binding to all tested laminin isoforms” value in [1] is listed as “not”.
Turning to CXCL-12α: CXCL chemokine, PeproTech, in [1], the “binding to the other laminin isoforms (ELISA, A450 nm)” value is “not to the other isoforms” and the “binding to laminin-332 (ELISA, A450 nm)” value is reported as “bound weakly”.
Take “TLFLAHGRLVYMFNVGHKKLKIR [LAMA4_1521–1543, chemically synthesized human laminin LAMA4 LG4 peptide, 23 aa]”: the “binding to PDGF-BB (ELISA), peptides” value in the assay with PDGF-BB was “not statistically significant”. In assay [2], the “binding to syndecans 1–4 (ELISA)” value is given as “significant binding” and the “Interaction with Syndecan” value is reported as “++”. Also, in [3], the “binding to heparin (ELISA)” value is on record as “bound to heparin” and the “Interaction with Heparin” value is reported as “++”. Also, in the assay with human lung fibroblasts, the “Cell adhesion Fibroblast” value was “+” and the “fibroblast attachment” value is “enhancement of fibroblast attachment”. Further, the “Interaction with GF” value with GF is recorded as “+”. Moreover, in assay [4], the “Cell adhesion HUVEC” value is on record as “+” and the “HUVEC attachment on peptide-coated surfaces” value is “promoted HUVEC attachment”.
“IGF-1: insulin-like growth factor, PeproTech”: the “binding to all tested laminin isoforms” value in assay [1] was “Neither IGF-1 nor IGF-2 displayed significant binding”.
Turning to “FGF-1: fibroblast growth factor, PeproTech”, the “binding to all tested laminin isoforms” value in assay [1] is listed as “did not”.
Take “TPGLGPRGLQATARKASRRSRQPARHPACML [LAMA5_3300–3330, chemically synthesized human laminin LAMA5 linker peptide, 31 aa]”: in assay [2], the “binding to syndecans 1–4 (ELISA)” value is “significant binding” and the “Interaction with Syndecan” value is recorded as “++”. Besides, in [3], the “binding to heparin (ELISA)” value is “bound to heparin” and the “Interaction with Heparin” value was “++”. Besides, the “Interaction with GF” value in the assay with GF is “+”. Besides, the “binding to VEGF-A165 (ELISA), peptides” value in the assay on VEGF-A165 is “preferentially bound”. The “binding to PlGF-2 (ELISA), peptides” value with PlGF-2 is “preferentially bound”.
On to “PDGF-AA: platelet-derived growth factor, PeproTech”, for which, in [1], the “binding to all tested laminin isoforms” value is listed as “bound”.

Source of the values: paper PMC5986797, “Laminin heparin-binding peptides bind to several growth factors and enhance diabetic wound healing” (Nature Communications, 2018).
